This is an account of results in ChEMBL document CHEMBL1128762, “The design of polar -turn dipeptide mimetics” (Bioorg Med Chem Lett, 1995).

One test deals with T1, Neuromedin-K receptor (Homo sapiens, UniProt P29371).
T1 sequence (P29371 whole entry): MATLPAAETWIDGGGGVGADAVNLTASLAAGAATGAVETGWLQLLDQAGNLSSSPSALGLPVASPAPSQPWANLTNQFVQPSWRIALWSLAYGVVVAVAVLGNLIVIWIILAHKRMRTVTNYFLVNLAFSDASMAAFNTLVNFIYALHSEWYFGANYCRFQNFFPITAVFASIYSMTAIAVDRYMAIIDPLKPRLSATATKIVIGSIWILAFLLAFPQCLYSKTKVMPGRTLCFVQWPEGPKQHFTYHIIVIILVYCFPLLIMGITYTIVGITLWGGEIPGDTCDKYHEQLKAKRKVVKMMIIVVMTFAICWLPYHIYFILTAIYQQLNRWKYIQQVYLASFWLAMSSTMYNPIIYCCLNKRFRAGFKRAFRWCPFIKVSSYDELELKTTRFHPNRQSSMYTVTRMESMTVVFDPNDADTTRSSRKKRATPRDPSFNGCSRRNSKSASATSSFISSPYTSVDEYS
Kind of test: Binding affinity towards Tachykinin receptor 3 using [125I]-[Mephe7] NKB as radioligand.

For the next test, the target named is T2, Substance-K receptor (Mesocricetus auratus, UniProt P51144).
T2 sequence (P51144 whole entry): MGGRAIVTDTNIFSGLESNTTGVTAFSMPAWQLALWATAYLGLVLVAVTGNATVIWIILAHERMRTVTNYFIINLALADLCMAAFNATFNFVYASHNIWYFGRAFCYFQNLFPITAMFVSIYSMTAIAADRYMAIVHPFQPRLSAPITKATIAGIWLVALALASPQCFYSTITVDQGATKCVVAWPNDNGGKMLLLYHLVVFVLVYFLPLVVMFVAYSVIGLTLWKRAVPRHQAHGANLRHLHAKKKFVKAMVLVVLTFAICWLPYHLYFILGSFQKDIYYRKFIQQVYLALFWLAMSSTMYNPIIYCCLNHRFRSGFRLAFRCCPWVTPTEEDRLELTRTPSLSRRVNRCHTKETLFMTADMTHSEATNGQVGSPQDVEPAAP
As to the kind of experiment: Binding affinity towards Tachykinin receptor 2 using [125I]iodohistidyl-NKA (0.1 nM)) as radioligand. Details: species or system Cricetulus griseus.

Positions of bridges follow the written chain, without caps; N, C: chain ends. Non-standard residues stand in square brackets, D forms with d. Residues, ends and D or L forms follow the SMILES beside them. *: point of attachment. Cbz = O=C(OCc1ccccc1)*; Dap = NC[C@H](N)C(=O)O

As usually defined, the IC50 is the concentration needed to halve the response being measured. In turn, `O=C(Cc1ccccc1)N1CCC(Cc2ccccc2)C1` (stereo unspecified) came in with an IC50 on Neuromedin-K receptor of 9.4 µM.

In turn, `O=C(Cc1c[nH]c2ccccc12)N1CCC(Cc2ccccc2)C1` (stereo unspecified) displayed an IC50 on Substance-K receptor of more than 10 µM.

In the case of `NC(=O)[C@H](Cc1ccccc1)NC(=O)[C@H](Cc1c[nH]c2ccccc12)NC(=O)OCc1ccccc1` (Cbz-Trp-Phe-NH2), the IC50 at Neuromedin-K receptor amounted to 9.3 µM; on Substance-K receptor it was 5.2 µM.

On to `CSCC[C@@H]1NC(=O)[C@H](CC(C)C)NC(=O)[C@@H]2CNC(=O)C[C@H](NC1=O)C(=O)N[C@@H](Cc1c[nH]c3ccccc13)C(=O)N[C@@H](Cc1ccccc1)C(=O)N2` (cyclo(DWF[Dap]LM); lactam 1-4), for which, at Substance-K receptor, the IC50 is more than 10 µM.

As for Ac-LMQWFG-OH, the IC50 at Substance-K receptor came out at 19.8 µM.
